Several values for one entry are separate records, joined by “and”; a condition that tells them apart may be missing. Equal entries are not always repeated. Where two headings read alike, the source gives them in different places. Marks after values point to notes of the source that are not given here.
How the values were obtained:
[1] = system: SKOV-3; details: for GI50: read-out: GI50 ±SEM (50% inhibition of cell growth, cytostatic); for IC50: read-out: IC50 ±SEM (50% cytocidal effect, cytotoxic)
[2] = system: UWB1.289; details: for GI50: read-out: GI50 ±SEM (50% inhibition of cell growth, cytostatic); for IC50: read-out: IC50 ±SEM (50% cytocidal effect, cytotoxic)
[3] = system: UWB1.289; experiment: Sister chromatid exchanges (SCEs) assay, genotoxicity and PRI
[4] = system: MRC-5; experiment: MTT assay, selectivity on normal lung fibroblasts; details: for GI50: Homo sapiens, MRC5, 48 h, read-out: GI50 ±SEM (50% inhibition of cell growth, cytostatic)
[5] = MTT assay, selectivity on normal lung fibroblasts; details: human, MRC-5 normal lung fibroblasts
[6] = system: PHA-stimulated PBMCs (T-lymphocytes) from healthy donors; experiment: Sister chromatid exchanges (SCEs) assay, genotoxicity and PRI
[7] = system: PARP1 mRNA (PARP1/ACTB); type: cell-based, human
[8] = system: OVCAR-3; details: for GI50: read-out: GI50 ±SEM (50% inhibition of cell growth, cytostatic); for IC50: read-out: IC50 ±SEM (50% cytocidal effect, cytotoxic)
[9] = system: SKOV-3; details: human
[10] = system: UWB1.289; details: human
[11] = system: UWB1.289; details: human; remark: listed apart in the source
[12] = system: PHA-stimulated PBMCs (T-lymphocytes) from healthy donors; details: human
[13] = in vitro; details: human
[14] = system: OVCAR-3; details: human
[15] = system: PARP2 mRNA (PARP2/ACTB); experiment: PARP2 mRNA expression analysis by qRT-PCR; type: cell-based, human; details: UWB1.289, vs untreated cells, 20 and 40 μΜ, 72 h

NC(=O)c1cccc(N)c1 [3-AB, 3-Aminobenzamide, reference compound]
TGI ±SEM (100% cell growth inhibition, cytostatic) ([1]; SKOV-3, 48 h treatment, MTT): >100 µM
GI50 ([1]; SKOV-3, 48 h treatment, MTT): > 100 µM
IC50 ([1]; SKOV-3, 48 h treatment, MTT): > 100 µM
TGI ±SEM (100% cell growth inhibition, cytostatic) ([2]; UWB1.289, 48 h treatment, MTT): >100 µM
GI50 ([2]; UWB1.289, 48 h treatment, MTT): 92 ± 13 µM
IC50 ([2]; UWB1.289, 48 h treatment, MTT): > 100 µM
SCE/Chromosome ± SEM ([3]; UWB1.289, 3 μM): 0.43 ± 0.025
SCEs/Metaphase ± SEM ([3]; UWB1.289, 3 μM): 31.91 ± 1.88
GI50 [4]: > 100 µM
TGI ±SEM (100% cell growth inhibition, cytostatic) ([4]; MRC-5 normal human lung fibroblasts, 48 h treatment, MTT): >100 µM
IC50 at 48 h [5]: > 100 µM
Mean PRI ± SD ([6]; mean of 5 donors' PBMCs, 3 μM): 2.696 ± 0.12
Mean SCE/Chromosome ± SD ([6]; mean of 5 donors' PBMCs, 3 μM): 0.30 ± 0.03
Mean SCEs/metaphase Mean ± SD ([6]; mean of 5 donors' PBMCs, 3 μM): 14.03 ± 1.24
alterations in the PARP1/ACTB mRNA cellular content [7]: non-significant alterations
TGI ±SEM (100% cell growth inhibition, cytostatic) ([8]; OVCAR-3, 48 h treatment, MTT): >100 µM
GI50 ([8]; OVCAR-3, 48 h treatment, MTT): > 100 µM
IC50 ([8]; OVCAR-3, 48 h treatment, MTT): > 100 µM

C[C@]12CC[C@H](OC(=O)CCOc3ccc(N(CCCl)CCCl)cc3)CC1=CC(=O)NC1C2CC[C@]2(C)C(=O)CCC12 (stereo partly shown) [ASA-A, 7a,9a-dimethyl-2,10-dioxo-1,2,4,5,6,7,7a,7b, 8,9,9a,10,11,12,12a,12b-hexadecahydrobenzo[d]indeno [4,5-b]azepin-5-yl 3-(4-(bis(2-chloroethyl)amino)phenoxy)propanoate]
TGI ±SEM (100% cell growth inhibition, cytostatic) [1]: 33 ± 2.79 µM
GI50 [1]: 15 ± 1.26 µM
IC50 [9]: 67 ± 7.11 µM
SCE/Chromosome ± SEM [10]: 1.0 ± 0.054
SCEs/Metaphase ± SEM [10]: 73.78 ± 4.03
IC50 [11]: 71 ± 7.01 µM
Mean SCE/Chromosome ± SD [12]: 0.66 ± 0.04
Mean SCEs/metaphase Mean ± SD [12]: 30.28 ± 2.03
IC50 [13]: > 100 µM
TGI ±SEM (100% cell growth inhibition, cytostatic) [2]: 52 ± 4.61 µM
GI50 [2]: 19 ± 1.83 µM
IC50 [14]: 47 ± 4.82 µM
PRI (Proliferation Rate Index) [3]: 1.88 *
TGI ±SEM (100% cell growth inhibition, cytostatic) [4]: >100 µM
GI50 [4]: 69 ± 7.13 µM
Mean PRI ± SD [6]: 2.18 ± 0.13
PRI (Proliferation Rate Index) [6]: 2.13 and 2.21 and 1.98 and 2.32 and 2.26
TGI ±SEM (100% cell growth inhibition, cytostatic) [8]: 38 ± 2.95 µM
GI50 [8]: 29 ± 3.04 µM

CC12CCC3C(NC(=O)C=C4CC(OC(=O)CCOc5ccc(N(CCCl)CCCl)cc5)CCC43C)C1CCC(=O)N2 (stereo not shown) [ASA-B, 11a,13a-dimethyl-2,6-dioxo-2,3,4,4a,4b,5,6,8,9,10,11,11a,11b,12,13,13a-hexadecahydro-1H-benzo[4,5]azepino [2,3-f]quinolin-9-yl 3-(4-(bis(2-chloroethyl)amino)phenoxy)propanoate]
TGI ±SEM (100% cell growth inhibition, cytostatic) [1]: 51 ± 4.46 µM
GI50 [1]: 24 ± 2.42 µM
increase of the PARP2/ACTB mRNA ratio [15]: 140- to150 fold
IC50 [9]: 98 ± 8.97 µM
SCE/Chromosome ± SEM [10]: 1.17 ± 0.07
SCEs/Metaphase ± SEM [10]: 86.76 ± 4.97
IC50 [11]: 54 ± 5.11 µM
Mean SCE/Chromosome ± SD [12]: 0.86 ± 0.06
Mean SCEs/metaphase Mean ± SD [12]: 39.54 ± 2.84
IC50 [13]: > 100 µM
TGI ±SEM (100% cell growth inhibition, cytostatic) [2]: 35 ± 3.63 µM
GI50 [2]: 10 ± 0.81 µM
IC50 [14]: > 100 µM
PRI (Proliferation Rate Index) [3]: 1.77 *
TGI ±SEM (100% cell growth inhibition, cytostatic) [4]: >100 µM
GI50 [4]: 86 ± 9.95 µM
Mean PRI ± SD [6]: 2.23 ± 0.12
PRI (Proliferation Rate Index) [6]: 2.30 and 2.18 and 2.04 and 2.34 and 2.29
TGI ±SEM (100% cell growth inhibition, cytostatic) [8]: 81 ± 7.82 µM
GI50 [8]: 44 ± 5.04 µM

CC(C)CCCC(C)[C@H]1CCC2C3NC(=O)C=C4C[C@@H](OC(=O)CCOc5ccc(N(CCCl)CCCl)cc5)CC[C@]4(C)C3CC[C@@]21C (stereo partly drawn) [ASA-C, 7a,9a-dimethyl-10-((R)-6-methylheptan-2-yl)-2-oxo-1,2,4,5,6,7,7a,7b,8,9,9a,10,11,12,12a,12b-hexadecahydrobenzo[d]indeno[4,5-b]azepin-5-yl 3-(4-(bis(2-chloroethyl)amino)phenoxy)propanoate]
TGI ±SEM (100% cell growth inhibition, cytostatic) [1]: >100 µM
GI50 [1]: > 100 µM
IC50 [9]: > 100 µM
SCE/Chromosome ± SEM [10]: 0.33 ± 0.02
SCEs/Metaphase ± SEM [10]: 24.53 ± 1.72
IC50 [11]: > 100 µM
Mean SCE/Chromosome ± SD [12]: 0.19 ± 0.08
Mean SCEs/metaphase Mean ± SD [12]: 8.81 ± 0.4
IC50 [13]: > 100 µM
TGI ±SEM (100% cell growth inhibition, cytostatic) [2]: >100 µM
GI50 [2]: 73 ± 7.58 µM
IC50 [14]: > 100 µM
PRI (Proliferation Rate Index) [3]: 2.15
TGI ±SEM (100% cell growth inhibition, cytostatic) [4]: >100 µM
GI50 [4]: > 100 µM
Mean PRI ± SD [6]: 2.612 ± 0.13
PRI (Proliferation Rate Index) [6]: 2.48 and 2.72 and 2.47 and 2.65 and 2.74
TGI ±SEM (100% cell growth inhibition, cytostatic) [8]: >100 µM
GI50 [8]: > 100 µM

O=C(c1cc(Cc2n[nH]c(=O)c3ccccc23)ccc1F)N1CCN(C(=O)C2CC2)CC1 [Olaparib]
TGI ±SEM (100% cell growth inhibition, cytostatic) [1]: >100 µM
GI50 [1]: > 100 µM
IC50 ([1]; SKOV-3, 48 h treatment, MTT): > 100 µM
TGI ±SEM (100% cell growth inhibition, cytostatic) [2]: 85 ± 9.34 µM
GI50 [2]: 14 ± 1.78 µM
IC50 ([2]; UWB1.289, 48 h treatment, MTT): > 100 µM
PRI (Proliferation Rate Index) ([3]; UWB1.289, 3 μM): 1.98 *
SCE/Chromosome ± SEM ([3]; UWB1.289, 3 μM): 0.90 ± 0.06
SCEs/Metaphase ± SEM ([3]; UWB1.289, 3 μM): 66.78 ± 4.45
TGI ±SEM (100% cell growth inhibition, cytostatic) [4]: >100 µM
GI50 [4]: > 100 µM
IC50 at 48 h [5]: > 100 µM
PRI (Proliferation Rate Index) ([6]; Donor 1 PBMCs, 3 μM): 2.60
SCE/Chromosome ± SEM ([6]; Donor 1 PBMCs, 3 μM): 0.44 ± 0.02
SCEs/Metaphase ± SEM ([6]; Donor 1 PBMCs, 3 μM): 20.43 ± 1.1
PRI (Proliferation Rate Index) ([6]; Donor 2 PBMCs, 3 μM): 2.56
SCE/Chromosome ± SEM ([6]; Donor 2 PBMCs, 3 μM): 0.47 ± 0.03
SCEs/Metaphase ± SEM ([6]; Donor 2 PBMCs, 3 μM): 21.6 ± 1.4
PRI (Proliferation Rate Index) ([6]; Donor 3 PBMCs, 3 μM): 2.47
SCE/Chromosome ± SEM ([6]; Donor 3 PBMCs, 3 μM): 0.52 ± 0.03
SCEs/Metaphase ± SEM ([6]; Donor 3 PBMCs, 3 μM): 23.87 ± 1.5
PRI (Proliferation Rate Index) ([6]; Donor 4 PBMCs, 3 μM): 2.76
SCE/Chromosome ± SEM ([6]; Donor 4 PBMCs, 3 μM): 0.48 ± 0.03
SCEs/Metaphase ± SEM ([6]; Donor 4 PBMCs, 3 μM): 21.92 ± 1.2
PRI (Proliferation Rate Index) ([6]; Donor 5 PBMCs, 3 μM): 2.34
SCE/Chromosome ± SEM ([6]; Donor 5 PBMCs, 3 μM): 0.55 ± 0.04
SCEs/Metaphase ± SEM ([6]; Donor 5 PBMCs, 3 μM): 25.32 ± 1.6
Mean PRI ± SD ([6]; mean of 5 donors' PBMCs, 3 μM): 2.546 ± 0.16
Mean SCE/Chromosome ± SD ([6]; mean of 5 donors' PBMCs, 3 μM): 0.66 ± 0.04
Mean SCEs/metaphase Mean ± SD ([6]; mean of 5 donors' PBMCs, 3 μM): 22.63 ± 1.95
TGI ±SEM (100% cell growth inhibition, cytostatic) [8]: >100 µM
GI50 [8]: 32 ± 4.64 µM
IC50 ([8]; OVCAR-3, 48 h treatment, MTT): > 100 µM

From article PMC8394033, “Cytocidal Antitumor Effects against Human Ovarian Cancer Cells Induced by B-Lactam Steroid Alkylators with Targeted Activity against Poly (ADP-Ribose) Polymerase (PARP) Enzymes in a Cell-Free Assay” (Biomedicines, 2021)
